Literature values as cited in US20080146534A1, “PHARMACEUTICAL COMPOSITION FOR REDUCING THE RISKS ASSOCIATED WITH CARDIOVASCULAR AND CEREBROVASCULAR DISEASES” (priority 2006, published 2008).

Conditions: at clinical doses

In the case of O=C1CCc2cc(OCCCCc3nnnn3C3CCCCC3)ccc2N1 [Cilostazol, 6-[4-(1-cyclohexyl-1H-tetrazol-5-yl)butoxy]-3,4-dihydro-2(1H)-quinolinon], the “increase in heart rate” value is given as “about 7 beats/minute” and the “ventricular premature beat (VPB) rate” value (small increase from 1/hour) is given as 4 h⁻¹.
